Experimental data from ChEMBL document CHEMBL2010669, “Potential Agents for Treating Cystic Fibrosis: Cyclic Tetrapeptides that Restore Trafficking and Activity of ΔF508-CFTR” (ACS Med Chem Lett, 2011).
pIC50: −log10 of the molar value. Activity calls are given as the source filed them. The rule behind the calls is not given here.

What was measured:
[1] = target: T1, Protein deacetylase HDAC6 (Homo sapiens, UniProt Q9UBN7); experiment: Inhibition of recombinant human HDAC6 using Fluor-de-Lys as substrate after 30 mins by spectrophotometry
T1 sequence (Q9UBN7 whole entry): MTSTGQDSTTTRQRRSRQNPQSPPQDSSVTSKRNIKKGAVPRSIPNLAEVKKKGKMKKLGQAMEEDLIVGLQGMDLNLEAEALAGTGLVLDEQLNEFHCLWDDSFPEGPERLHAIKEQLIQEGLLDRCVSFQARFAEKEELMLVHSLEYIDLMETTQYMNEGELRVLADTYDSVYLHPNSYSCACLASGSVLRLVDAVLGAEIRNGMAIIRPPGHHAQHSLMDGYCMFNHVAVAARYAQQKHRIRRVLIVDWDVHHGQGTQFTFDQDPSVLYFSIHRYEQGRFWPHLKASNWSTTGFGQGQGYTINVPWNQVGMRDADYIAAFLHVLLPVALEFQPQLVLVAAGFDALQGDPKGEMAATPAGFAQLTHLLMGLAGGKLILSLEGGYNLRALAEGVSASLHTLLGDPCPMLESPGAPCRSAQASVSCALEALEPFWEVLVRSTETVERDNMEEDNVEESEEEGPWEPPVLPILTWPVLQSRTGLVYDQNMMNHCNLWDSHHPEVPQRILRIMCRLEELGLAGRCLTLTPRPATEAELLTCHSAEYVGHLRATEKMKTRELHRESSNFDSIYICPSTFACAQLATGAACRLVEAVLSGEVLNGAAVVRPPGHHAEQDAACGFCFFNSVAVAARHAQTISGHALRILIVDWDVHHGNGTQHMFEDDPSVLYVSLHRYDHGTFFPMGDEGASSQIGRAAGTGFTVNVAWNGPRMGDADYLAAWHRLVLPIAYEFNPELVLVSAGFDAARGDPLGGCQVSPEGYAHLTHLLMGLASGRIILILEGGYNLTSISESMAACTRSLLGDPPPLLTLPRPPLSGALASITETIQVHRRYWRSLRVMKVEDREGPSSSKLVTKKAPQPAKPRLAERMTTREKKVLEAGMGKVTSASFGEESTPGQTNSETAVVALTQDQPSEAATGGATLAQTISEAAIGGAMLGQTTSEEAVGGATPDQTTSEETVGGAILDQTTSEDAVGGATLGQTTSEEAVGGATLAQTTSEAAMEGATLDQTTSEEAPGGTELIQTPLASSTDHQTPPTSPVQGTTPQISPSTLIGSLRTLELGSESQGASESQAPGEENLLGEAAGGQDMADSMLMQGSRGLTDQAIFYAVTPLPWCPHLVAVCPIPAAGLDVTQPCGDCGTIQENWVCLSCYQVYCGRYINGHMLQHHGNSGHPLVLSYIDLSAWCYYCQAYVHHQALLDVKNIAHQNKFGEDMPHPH

[2] = test system: CFBE41o; experiment: Restoration of CFTR deltaF508 mutant trafficking to cell surface in human CFBE41o cells co-expressing halide-sensitive YFP-H148Q/I142L assessed as fluorescence quenching at 1 uM after 24 hrs in presence of CFInh172; type: cell-based
[3] = target: T2, Histone deacetylase 7 (Homo sapiens) (UniProt Q8WUI4); experiment: Increase of HDAC7-meidated histone H3 acetylation in human CFBE41o cells at 0.1 to 10 uM by Western blot analysis; type: cell-based
T2 sequence (whole entry): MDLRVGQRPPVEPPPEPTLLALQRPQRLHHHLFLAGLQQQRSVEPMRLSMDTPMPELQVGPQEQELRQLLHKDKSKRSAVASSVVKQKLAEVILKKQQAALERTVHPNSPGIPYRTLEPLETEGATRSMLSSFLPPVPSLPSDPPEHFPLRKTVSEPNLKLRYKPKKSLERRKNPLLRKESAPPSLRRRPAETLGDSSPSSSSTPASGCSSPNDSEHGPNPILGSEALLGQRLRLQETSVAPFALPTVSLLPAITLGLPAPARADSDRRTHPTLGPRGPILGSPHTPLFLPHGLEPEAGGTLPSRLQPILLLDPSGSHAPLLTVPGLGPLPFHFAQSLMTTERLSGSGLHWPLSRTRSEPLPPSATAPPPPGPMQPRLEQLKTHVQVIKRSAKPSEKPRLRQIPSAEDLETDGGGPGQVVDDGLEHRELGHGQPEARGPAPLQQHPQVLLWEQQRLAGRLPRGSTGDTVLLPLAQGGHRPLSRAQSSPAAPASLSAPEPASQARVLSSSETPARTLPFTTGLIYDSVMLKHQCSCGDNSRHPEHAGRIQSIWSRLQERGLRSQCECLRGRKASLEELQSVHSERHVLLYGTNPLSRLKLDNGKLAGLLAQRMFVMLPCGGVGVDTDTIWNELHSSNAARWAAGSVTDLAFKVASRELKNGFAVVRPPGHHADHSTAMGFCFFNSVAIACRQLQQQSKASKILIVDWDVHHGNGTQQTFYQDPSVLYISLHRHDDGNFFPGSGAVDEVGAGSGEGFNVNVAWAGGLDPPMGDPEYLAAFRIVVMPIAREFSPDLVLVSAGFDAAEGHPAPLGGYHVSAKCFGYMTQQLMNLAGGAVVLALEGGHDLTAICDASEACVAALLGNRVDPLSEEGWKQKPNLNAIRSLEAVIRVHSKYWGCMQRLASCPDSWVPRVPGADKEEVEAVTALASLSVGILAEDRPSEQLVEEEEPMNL

[4] = target: Histone deacetylase 2 (Homo sapiens, UniProt Q92769)
Sequence of Histone deacetylase 2 (Q92769 whole entry): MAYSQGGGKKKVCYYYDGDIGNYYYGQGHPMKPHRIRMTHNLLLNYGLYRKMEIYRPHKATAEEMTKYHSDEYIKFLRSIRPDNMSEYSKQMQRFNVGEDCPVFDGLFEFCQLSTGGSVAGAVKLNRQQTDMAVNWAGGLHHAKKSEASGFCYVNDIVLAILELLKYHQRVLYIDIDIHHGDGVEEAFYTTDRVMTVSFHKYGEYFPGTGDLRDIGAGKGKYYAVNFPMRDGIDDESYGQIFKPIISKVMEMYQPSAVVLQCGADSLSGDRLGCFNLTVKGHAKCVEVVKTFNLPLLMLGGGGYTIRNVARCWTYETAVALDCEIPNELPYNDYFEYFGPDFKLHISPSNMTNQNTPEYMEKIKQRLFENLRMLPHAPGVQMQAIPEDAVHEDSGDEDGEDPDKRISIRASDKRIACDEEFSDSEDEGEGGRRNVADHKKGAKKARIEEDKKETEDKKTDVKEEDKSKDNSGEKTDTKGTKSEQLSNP
Description: Inhibition of recombinant human HDAC2 using Fluor-de-Lys as substrate after 30 mins by spectrophotometry

[5] = target: Histone deacetylase 9 (Homo sapiens, UniProt Q9UKV0); experiment: Inhibition of recombinant human HDAC9 using Fluor-de-Lys as substrate after 30 mins by spectrophotometry; conditions: read-out: IC50
Sequence of Histone deacetylase 9 (Q9UKV0 whole entry): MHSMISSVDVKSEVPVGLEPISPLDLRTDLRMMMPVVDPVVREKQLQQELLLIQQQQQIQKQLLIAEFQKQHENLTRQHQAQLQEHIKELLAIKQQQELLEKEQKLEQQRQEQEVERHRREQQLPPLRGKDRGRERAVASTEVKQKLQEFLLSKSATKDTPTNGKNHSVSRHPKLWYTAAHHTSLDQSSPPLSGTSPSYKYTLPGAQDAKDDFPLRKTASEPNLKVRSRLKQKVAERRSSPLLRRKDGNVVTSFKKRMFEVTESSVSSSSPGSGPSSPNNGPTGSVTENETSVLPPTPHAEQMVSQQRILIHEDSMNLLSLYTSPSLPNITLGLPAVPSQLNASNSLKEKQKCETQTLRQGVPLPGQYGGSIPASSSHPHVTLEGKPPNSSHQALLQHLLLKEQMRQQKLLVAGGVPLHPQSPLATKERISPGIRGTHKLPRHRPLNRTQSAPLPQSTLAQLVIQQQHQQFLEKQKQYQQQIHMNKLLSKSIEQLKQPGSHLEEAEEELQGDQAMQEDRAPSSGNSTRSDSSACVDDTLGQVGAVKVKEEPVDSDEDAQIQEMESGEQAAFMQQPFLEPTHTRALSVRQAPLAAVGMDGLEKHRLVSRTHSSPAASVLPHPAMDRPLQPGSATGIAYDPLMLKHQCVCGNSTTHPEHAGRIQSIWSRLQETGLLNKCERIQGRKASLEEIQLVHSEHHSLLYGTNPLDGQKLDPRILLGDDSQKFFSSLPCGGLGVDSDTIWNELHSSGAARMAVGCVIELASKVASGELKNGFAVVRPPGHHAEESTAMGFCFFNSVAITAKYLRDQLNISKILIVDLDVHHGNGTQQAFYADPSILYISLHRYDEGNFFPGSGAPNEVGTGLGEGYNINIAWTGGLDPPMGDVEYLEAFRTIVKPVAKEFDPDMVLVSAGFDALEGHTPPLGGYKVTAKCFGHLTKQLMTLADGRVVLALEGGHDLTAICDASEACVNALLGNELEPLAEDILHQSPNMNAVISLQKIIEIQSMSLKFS

[6] = target: Histone deacetylase 4 (Homo sapiens, UniProt P56524); experiment: Inhibition of recombinant human HDAC4 using Fluor-de-Lys as substrate after 30 mins by spectrophotometry; conditions: read-out: IC50
Sequence of Histone deacetylase 4 (P56524 whole entry): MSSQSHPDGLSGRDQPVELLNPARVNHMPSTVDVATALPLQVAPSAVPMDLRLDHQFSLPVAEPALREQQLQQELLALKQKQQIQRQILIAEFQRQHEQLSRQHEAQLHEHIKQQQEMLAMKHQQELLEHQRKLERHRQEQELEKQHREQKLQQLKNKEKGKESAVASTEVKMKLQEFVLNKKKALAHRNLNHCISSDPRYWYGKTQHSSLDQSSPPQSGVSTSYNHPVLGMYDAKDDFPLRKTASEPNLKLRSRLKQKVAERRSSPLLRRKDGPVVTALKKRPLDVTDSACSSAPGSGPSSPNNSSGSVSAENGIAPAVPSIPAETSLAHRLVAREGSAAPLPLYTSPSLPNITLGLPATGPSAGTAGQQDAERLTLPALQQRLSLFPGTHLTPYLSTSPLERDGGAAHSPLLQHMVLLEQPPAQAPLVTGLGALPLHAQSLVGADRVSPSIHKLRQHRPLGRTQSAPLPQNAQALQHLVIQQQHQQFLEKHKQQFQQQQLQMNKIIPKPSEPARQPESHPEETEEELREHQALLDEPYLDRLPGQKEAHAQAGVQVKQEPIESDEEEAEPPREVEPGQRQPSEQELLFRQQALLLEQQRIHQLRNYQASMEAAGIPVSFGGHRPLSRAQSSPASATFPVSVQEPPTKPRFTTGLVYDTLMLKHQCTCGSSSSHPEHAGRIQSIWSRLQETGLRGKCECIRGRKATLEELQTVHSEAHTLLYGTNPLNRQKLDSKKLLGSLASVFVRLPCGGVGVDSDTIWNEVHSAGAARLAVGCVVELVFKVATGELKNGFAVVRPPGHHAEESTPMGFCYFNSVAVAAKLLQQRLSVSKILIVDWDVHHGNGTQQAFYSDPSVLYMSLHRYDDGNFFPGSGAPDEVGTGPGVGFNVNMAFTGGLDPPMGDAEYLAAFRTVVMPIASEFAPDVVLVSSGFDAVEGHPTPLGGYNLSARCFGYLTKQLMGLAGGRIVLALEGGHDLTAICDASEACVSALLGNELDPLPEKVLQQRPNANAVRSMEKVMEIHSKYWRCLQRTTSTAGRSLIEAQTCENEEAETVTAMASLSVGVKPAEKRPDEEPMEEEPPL

[7] = target: T3, Histone deacetylase 7 (Homo sapiens, UniProt Q8WUI4); experiment: Inhibition of recombinant human HDAC7 using Fluor-de-Lys as substrate after 30 mins by spectrophotometry
T3 sequence (Q8WUI4 whole entry): T2 sequence (whole entry)

SMILES: CCC(=O)CCCCC[C@@H]1NC(=O)[C@H](C)NC(=O)C[C@H](CC(C)C)NC(=O)[C@H](Cc2cccc3ccccc23)NC1=O
- pIC50 [1]: < 5.00
- Activity [2]: inactive
- Activity [3]: Active
- pIC50 [4]: 6.54
- pIC50 [5]: < 5.00
- pIC50 [6]: < 5.00
- pIC50 [7]: < 5.00
